Source: the supplement of paper PMC4862054

What was measured:
Settings in all cases: incubation time: 72 h
[1] = system: DU-4475; assay: normalised viability (% of control), CellTiter-Blue; higher = more viable cells (about 100 = DMSO control)
Procedure: (§1)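 DSRT, CellTiter-Blue viability, 72 h incubation. Signal is normalised to DMSO and benzethonium chloride controls. Value is the normalised response at dose 6.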

[2] = system: CAL-148; assay: as above
Procedure: as §1

[3] = system: CAL-85-1; assay: as above
Procedure: as §1

[4] = system: HDQ-P1; assay: as above
Procedure: as §1

[5] = system: MDA-MB-453; assay: as above
Procedure: as §1

[6] = system: CAL-51; assay: as above
Procedure: as §1

[7] = system: DU-4475; assay: as above; remark: listed apart in the source
Procedure: (§2)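 DSRT, CellTiter-Blue viability, 72 h incubation. Signal is normalised to DMSO and benzethonium chloride controls. Value is the normalised response at dose 7.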

[8] = system: CAL-148; assay: as above; remark: listed apart in the source
Procedure: as §2

[9] = system: CAL-85-1; assay: as above; remark: listed apart in the source
Procedure: as §2

[10] = system: HDQ-P1; assay: as above; remark: listed apart in the source
Procedure: as §2

[11] = system: MDA-MB-453; assay: as above; remark: listed apart in the source
Procedure: as §2

[12] = system: CAL-51; assay: as above; remark: listed apart in the source
Procedure: as §2

[13] = system: DU-4475; assay: normalised response (% of control), CellTiter-Glo; higher = more viable cells (100 = DMSO, 0 = benzethonium chloride kill control)
In short: (§3)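 Normalised signals at single concentrations make up the values. They come from breast cancer cell lines seeded (20 µl suspension) into 384-well plates with compound at 5 concentrations in 10-fold steps over a compound-specific 10,000-fold range, incubated 72 h, and read for CellTox Green fluorescence then CellTiter-Glo luminescence. Each plate was normalised to 0.1 % DMSO (100) and a positive kill control (0).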

[14] = system: CAL-148; assay: as above
In short: as §3

[15] = system: HCC1599; assay: as above
In short: as §3

[16] = system: CAL-85-1; assay: as above
In short: as §3

[17] = system: Hs578T; assay: as above
In short: as §3

[18] = system: BT-549; assay: as above
In short: as §3

[19] = system: HCC1143; assay: as above
In short: as §3

[20] = system: MCF-10A; assay: as above
In short: as §3

[21] = system: BT-474; assay: as above
In short: as §3

[22] = system: HCC1937; assay: as above
In short: as §3

[23] = system: MFM-223; assay: as above
In short: as §3

[24] = system: HDQ-P1; assay: as above
In short: as §3

[25] = system: CAL-120; assay: as above
In short: as §3

[26] = system: MDA-MB-231; assay: as above
In short: as §3

[27] = system: MDA-MB-453; assay: as above
In short: as §3

[28] = system: CAL-51; assay: as above
In short: as §3

[29] = system: MDA-MB-436; assay: as above
In short: as §3

[30] = system: SK-BR-3; assay: as above
In short: as §3

[31] = system: MDA-MB-468; assay: as above
In short: as §3

`CC(=O)O[C@H]1C(=O)[C@@]2(C)[C@H]([C@H](OC(=O)c3ccccc3)[C@]3(O)C[C@H](OC(=O)[C@H](O)[C@@H](NC(=O)c4ccccc4)c4ccccc4)C(C)=C1C3(C)C)[C@]1(OC(C)=O)CO[C@@H]1C[C@@H]2O` [Paclitaxel] (30 nM) was tested, and the normalised viability [1] was 39.6%, the normalised viability [2] was 20.8% and the normalised viability [3] was 32.6%. The normalised viability [4] was 33.7%, the normalised viability [5] was 26.1% and the normalised viability [6] was 38.8%.

`CC(C)(C)c1cc(NC(=O)Nc2ccc(-c3cn4c(n3)sc3cc(OCCN5CCOCC5)ccc34)cc2)no1` [Quizartinib] (30 nM) gave a normalised viability [1] of 109%, a normalised viability [2] of 103% and a normalised viability [3] of 97.2%. The normalised viability [4] was 53.4%, the normalised viability [5] was 102% and the normalised viability [6] was 101%.

`COc1cc(Nc2ncc(F)c(Nc3ccc4c(n3)NC(=O)C(C)(C)O4)n2)cc(OC)c1OC` [R406] (300 nM) showed a normalised viability [1] of 87.5%, a normalised viability [2] of 108% and a normalised viability [3] of 98.3%. It also gave a normalised viability [4] of 102%, a normalised viability [5] of 109% and a normalised viability [6] of 114%.

Work on `COc1cc(Nc2ncc(F)c(Nc3ccc4c(n3)NC(=O)C(C)(C)O4)n2)cc(OC)c1OC` [R406] (1000 nM) yielded a normalised viability [7] of 105%, a normalised viability [8] of 97.2% and a normalised viability [9] of 84.7%. For the same molecule, the normalised viability [10] was 103%, the normalised viability [11] was 96.4% and the normalised viability [12] was 112%.

Work on `O=C(c1ccc(OCCN2CCCCC2)cc1)c1c(-c2ccc(O)cc2)sc2cc(O)ccc12` [Raloxifene] (300 nM) yielded a normalised viability [1] of 114%, a normalised viability [2] of 102% and a normalised viability [3] of 105%. The normalised viability [4] was 84.6%, the normalised viability [5] was 102% and the normalised viability [6] was 100%.

`Cn1c(=O)c(F)c(Nc2ccc(I)cc2F)c2c(=O)n(C[C@@H](O)CO)cnc21` [TAK-733] (30 nM) gave a normalised viability [1] of 1.81%, a normalised viability [2] of 98.7% and a normalised viability [3] of 84.5%. The normalised viability [4] was 77.7%, the normalised viability [5] was 112% and the normalised viability [6] was 89.7%.

`CCS(=O)(=O)c1cccc(-c2cc(C(=O)NC3CCN(C)CC3)c(C)c3[nH]c4ncc(C)cc4c23)c1` [TAK-901] (30 nM) gave a normalised viability [1] of 90.6%, a normalised viability [2] of 42.2% and a normalised viability [3] of 79.4%. The normalised viability [4] was 96.5%, the normalised viability [5] was 55.5% and the normalised viability [6] was 78.1%.

In the case of `c1ccc(C2CN3CCSC3=N2)cc1` (stereo not given) [Tetramisole] (300 nM), the normalised viability [1] is reported as 98.6%, the normalised viability [2] is reported as 102% and the normalised viability [3] is reported as 102%. For the same molecule, the normalised viability [4] was 129%, the normalised viability [5] was 103% and the normalised viability [6] was 93.3%.

`c1ccc(C2CN3CCSC3=N2)cc1` (stereo not given) [Tetramisole] (1000 nM) was tested, and the normalised viability [7] was 74%, the normalised viability [8] was 131% and the normalised viability [9] was 98.7%. It also gave a normalised viability [10] of 109%, a normalised viability [11] of 108% and a normalised viability [12] of 90.2%.

For `CCCC(CCC)C(=O)O` [Valproic acid] (300 nM), the normalised viability [1] was 83.7%, the normalised viability [2] was 103% and the normalised viability [3] was 90%. The normalised viability [4] was 112%, the normalised viability [5] was 103% and the normalised viability [6] was 103%.

Molecule `CCCC(CCC)C(=O)O` [Valproic acid] (1000 nM) has a normalised response [13] of 94.9%, a normalised response [14] of 96.2% and a normalised response [15] of 31.2%. For the same molecule, the normalised response [16] was 93.9%, the normalised response [17] was 103% and the normalised response [18] was 99.8%. For the same molecule, the normalised response [19] was 103%, the normalised response [20] was 98.7% and the normalised response [21] was 103%. For the same molecule, the normalised response [22] was 99.5%, the normalised response [23] was 94.5% and the normalised response [24] was 103%. For the same molecule, the normalised response [25] was 99.9%, the normalised response [26] was 101% and the normalised response [27] was 111%. For the same molecule, the normalised response [28] was 70.3%, the normalised response [29] was 95.6% and the normalised response [30] was 92.3%. The normalised response [31] was 93.8%, the normalised viability [7] was 94.8% and the normalised viability [8] was 88.8%. For the same molecule, the normalised viability [9] was 90.6%, the normalised viability [10] was 112% and the normalised viability [11] was 116%. For the same molecule, the normalised viability [12] was 89.1%.
